Data reported in US5824521A, “Saccharide composition containing trehalulose, its preparation and uses” (Kabushiki Kaisha Hayashibara Seibutsu Kagaku Kenkyujo, priority 1996, dated 1998).
Where a name gives a salt, the structure may show the parent alone.

How the values were obtained:
[1] = tested on: maltose/trehalose converting enzymes; conditions: one mM; cited from earlier work
invertase from yeast = target: T1, invertase from yeast (Saccharomyces cerevisiae, UniProt P00724); assay: Hydrolysis by enzyme: invertase; format: biochemical
T1 sequence (P00724 20-532): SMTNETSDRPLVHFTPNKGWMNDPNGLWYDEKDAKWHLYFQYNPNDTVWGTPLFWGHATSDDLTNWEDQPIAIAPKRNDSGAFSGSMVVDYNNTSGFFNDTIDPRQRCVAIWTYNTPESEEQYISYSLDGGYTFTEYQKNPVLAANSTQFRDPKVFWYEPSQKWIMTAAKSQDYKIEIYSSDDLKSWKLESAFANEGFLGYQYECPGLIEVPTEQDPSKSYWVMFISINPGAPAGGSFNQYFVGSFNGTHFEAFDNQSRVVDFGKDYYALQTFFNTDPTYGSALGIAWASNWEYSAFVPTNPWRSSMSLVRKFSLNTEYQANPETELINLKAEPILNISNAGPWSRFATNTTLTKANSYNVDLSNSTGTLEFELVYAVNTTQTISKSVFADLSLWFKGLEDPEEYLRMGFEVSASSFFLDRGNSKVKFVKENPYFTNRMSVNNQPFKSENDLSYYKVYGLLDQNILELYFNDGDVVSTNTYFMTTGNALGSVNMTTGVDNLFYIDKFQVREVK
Description: (§1) To identify the substance "X", the following confirmation tests were conducted using a high purity saccharide powder containing trehalulose prepared in Experiment 8: […]

α-glucosidase from yeast = α-glucosidase from yeast (Saccharomyces cerevisiae, UniProt P53341); assay: Hydrolysis by enzyme: α-glucosidase; format: biochemical; conditions: into glucose and fructose
Description: as §1

dd-strain mice = assay: Acute toxicity test; format: in vivo; conditions: oral, 7-week-old, higher dose test impossible
Text: No mouse died up to a dose of 15 g/kg mouse by weight and a higher dose test was impossible. Thus the toxicity of the saccharide is extremely low.

[2] = in vivo, po
Description: In accordance with the method as reported by H. Atsuji et al. in "Journal of Clinical Nutrition", Vol.41, No.2, pp.200-208 (1972), 30 g of the saccharide powder rich in trehalulose with a purity of 98%, d.s.b., in Experiment 8 was prepared into a 20 w/v % aqueous solution which was then orally administered to 3 healthy male volunteers, and their blood were sampled at a prescribed time interval, followed by assaying the blood sugar- and insulin-levels. As a control glucose was used.

Chain of α-glucosidase from yeast (P53341 whole entry): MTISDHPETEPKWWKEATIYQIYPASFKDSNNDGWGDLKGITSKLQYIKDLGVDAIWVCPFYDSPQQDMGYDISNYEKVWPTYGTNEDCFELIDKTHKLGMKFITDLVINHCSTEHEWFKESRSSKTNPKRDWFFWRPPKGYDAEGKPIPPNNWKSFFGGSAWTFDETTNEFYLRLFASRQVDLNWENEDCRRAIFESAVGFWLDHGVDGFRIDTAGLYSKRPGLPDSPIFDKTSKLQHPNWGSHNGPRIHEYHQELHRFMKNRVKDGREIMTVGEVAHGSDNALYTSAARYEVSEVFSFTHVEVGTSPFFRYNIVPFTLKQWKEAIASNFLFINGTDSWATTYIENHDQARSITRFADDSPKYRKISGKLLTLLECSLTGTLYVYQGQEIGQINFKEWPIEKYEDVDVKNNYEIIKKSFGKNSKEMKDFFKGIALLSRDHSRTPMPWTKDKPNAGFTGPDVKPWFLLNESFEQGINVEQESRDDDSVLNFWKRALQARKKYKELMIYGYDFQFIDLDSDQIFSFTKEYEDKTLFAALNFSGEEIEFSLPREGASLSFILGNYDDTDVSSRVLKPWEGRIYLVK

SMILES: [Cu+2] [Cu^++]
- Inhibition of enzyme activity [1]: inhibited

SMILES: [Hg+2] [Hg^++]
- Inhibition of enzyme activity [1]: inhibited

SMILES: O=C(CO[C@H]1O[C@H](CO)[C@@H](O)[C@H](O)[C@H]1O)[C@@H](O)[C@H](O)[C@H](O)CO [Trehalulose, 1-O-α-D-glucopyranosyl-D-fructose]
- Hydrolysis by an invertase from yeast (invertase from yeast): Not hydrolyzed
- Hydrolysis by α-glucosidase from yeast (α-glucosidase from yeast): Hydrolyzed
- Acute toxicity: lethal dose (no mouse died up to this dose) (dd-strain mice): > 15000 mg/kg
- Time of highest blood sugar-level after the administration [2]: 0.5 to 1 h
- Time of highest insulin-level after the administration [2]: 0.5 to 1 h

SMILES: NC(CO)(CO)CO [Tris-HCl buffer]
- Inhibition of enzyme activity [1]: inhibited
